The results in this text go back to article PMC7614687, “Modulation of the substrate specificity of the kinase PDK1 by distinct conformations of the full-length protein*” (Science signaling, 2023).

A word on the IC50: it is the point on the concentration scale where inhibition reaches its midpoint. Read a low IC50 as inhibition by little substance.

In experiment [1] the target is T1, PDK1 (Homo sapiens, UniProt O15530).
T1 sequence (O15530 1-556): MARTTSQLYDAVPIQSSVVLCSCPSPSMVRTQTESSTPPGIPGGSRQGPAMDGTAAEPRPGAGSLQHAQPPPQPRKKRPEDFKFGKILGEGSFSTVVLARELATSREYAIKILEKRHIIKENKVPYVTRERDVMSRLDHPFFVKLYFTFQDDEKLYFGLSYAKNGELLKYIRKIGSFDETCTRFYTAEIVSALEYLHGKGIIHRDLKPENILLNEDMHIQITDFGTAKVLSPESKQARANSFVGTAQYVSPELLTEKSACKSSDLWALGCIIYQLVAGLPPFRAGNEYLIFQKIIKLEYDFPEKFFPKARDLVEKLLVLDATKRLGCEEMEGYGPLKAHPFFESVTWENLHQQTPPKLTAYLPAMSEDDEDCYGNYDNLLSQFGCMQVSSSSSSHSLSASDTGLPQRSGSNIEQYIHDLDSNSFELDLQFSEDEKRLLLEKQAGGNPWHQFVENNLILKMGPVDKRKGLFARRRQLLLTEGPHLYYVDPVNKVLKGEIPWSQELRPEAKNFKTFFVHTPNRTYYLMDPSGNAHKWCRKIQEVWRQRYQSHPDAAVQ
In words: Thermo Fisher Scientific/Invitrogen PDK1 cascade assay (Akt2 as substrate, no PIP3). The format is biochemical. The conditions noted are these: 10-point titration. As to the method: To explore the structural basis of this effect, we synthesized additional inositol phosphate derivatives related to IP5 (Fig. 2A). […] The first was Thermo Fisher Scientific/Invitrogen PDK1 cascade assay, which uses Akt as substrate in a coupled, cascade-type assay and in which the activity of PDK1 is measured by its ability to activate Akt. The second was the “PDK1 Direct” assay, which uses a peptide substrate (Ser/Thr 07) of undisclosed sequence (table S1) as the substrate of PDK1 and a readout of FRET between coumarin and fluorescein (5-FAM). […] Scyllo-IP5 and another synthetic derivative of IP5, 2-O-(2-aminoethyl)-IP5 (AMR1474), were weak inhibitors in the same assays (10% or less inhibition at 1 μM) (table S2).
The commercial PDK1 activity assays were provided by Thermo Fisher Scientific as a service. […] The ¨PDK1 Direct¨ biochemical assay measures the phosphorylation of a peptide termed Ser/Thr 07 that is labeled with a donor fluorophore (coumarin) and an acceptor fluorophore (fluorescein) to create a FRET pair. The peptide substrate was first incubated with the kinase and ATP-Mg (25 μM ATP), then non-phosphorylated peptide was cleaved with a protease. The remaining FRET corresponds to the phosphorylated substrate. […]

Experiment [2] has as its target T2, full-length PDK1 (GST-PDK1_1-556) (Homo sapiens, UniProt O15530).
T2 construct: made in house; host or cells: HEK293 cells (transient transfection of pEBG2T)
T2 sequence (O15530 1-556): T1 sequence (O15530 1-556)
In words: Lipid overlay assay, di-C18-PIP3, full-length PDK1. The format is binding. As to the method: Dots containing 2-1000 picomoles of di-C18-PIP3 ([70]) were prepared by spotting 1 μL of serial dilution stock solutions (2-1000 μM dissolved in a 1:2:0.8 by volume mixture of chloroform/methanol/water) onto Hybond-C extra membrane (GE Healthcare), which were dried at room temperature. Membranes were incubated with blocking buffer (50 mm Tris-HCl buffer pH 7.5, 2 mg/ml fatty acid free bovine serum albumin, 150 mM NaCl, and 0.1% (v/v) Tween 20) for 1 h at room temperature. Membranes were then incubated with 10 nM protein/10 μM inhibitor mixes in blocking buffer with gentle rocking overnight at 4 °C. Membranes were washed 10 times over 1 h at room temperature using TBST buffer (50 mM Tris-HCl pH 7.5, 150 mM NaCl, 0.1% (v/v) Tween 20) before being incubated for 1 h with 1:2000 dilution of rabbit recombinant anti-PDK1 monoclonal antibody (New England Biolabs). Membranes were washed and incubated with 1:2000 dilution of anti-rabbit HRP conjugated antibody (Invitrogen/Thermo Fisher) for 1 h at room temperature. Finally, after washing, proteins bound to the membranes were detected using Novex ECL chemiluminescent reagent (Invitrogen/Thermo Fisher) and developed on X-ray film.

In the case of `O=C(O[C@H]1[C@@H](OP(=O)(O)O)[C@H](OP(=O)(O)O)[C@@H](OP(=O)(O)O)[C@H](OP(=O)(O)O)[C@H]1OP(=O)(O)O)c1ccccc1` [HYG8, 2-O-benzoyl-IP5], in experiment [1], the “Hill slope, Cascade” value was 2.19. The concentration for half-maximal inhibition (IC50) in experiment [1] (absence of PIP3) is 6.42 nM.

For the compound `CCCCO[C@H]1[C@@H](OP(=O)(O)O)[C@H](OP(=O)(O)O)[C@@H](OP(=O)(O)O)[C@H](OP(=O)(O)O)[C@H]1OP(=O)(O)O` [HYG14, 2-O-butyl-IP5], the “displacement of the interaction between PIP3 and full-length PDK1_1-556” value in experiment [2] is “much more potent”.
